Test results reported in US10591496B2, “Analyte extraction apparatus and method” (Sphere Medical Limited, priority 2013, dated 2020).

Assays:
[1] = free and bound Vancomycin fractions by SPE extraction and Gibbs reaction colorimetry; format: in vitro ADME; details: commercially available whole human serum spiked with 29 μM Vancomycin, absorbance at 589 nm, n=3, error = standard deviation
Description: A 1 ml whole serum sample (WHS) spiked with Vancomycin is applied to a 30 mg/1 ml reversed phase Strata™-X (polystyrene-divinylbenzene-N-vinylpyrrolidone copolymer) SPE column from Phenomenex (Torrance, Calif.). The column is washed firstly with 2 ml water to remove weakly bound impurities. This washing step may be repeated if necessary. Then a known volume (1 ml) of an organic solvent such as, but not limited to, methanol is used to elute the free Vancomycin fraction from the sorbent. This optionally may be followed by another organic washing step, e.g. another washing step with an organic solvent, which may be the same solvent or a different solvent as used in the elution step. The bound Vancomycin fraction is then eluted from the SPE column using a known volume (0.5 ml) of a mixture of one-third water and two-thirds methanol (by volume).
A 350 μl fraction of each elute is then transferred into separate vials. Then 50 μl of 3.625 mM Gibbs in methanol is added to each vial, followed by 40 μl of 0.4 M sodium hydroxide in borate buffer or water, which initiates the coupling reaction and results in an immediate colour change. After a shake, typically 350 μl of each mixture is transferred into a cuvette and their spectra are measured via a spectrophotometer. […]

[2] = Zeitlinger et al. 2011, cited from earlier work

For `CN[C@H](CC(C)C)C(=O)N[C@H]1C(=O)N[C@@H](CC(N)=O)C(=O)N[C@H]2C(=O)N[C@H]3C(=O)N[C@H](C(=O)N[C@H](C(=O)O)c4cc(O)cc(O)c4-c4cc3ccc4O)[C@H](O)c3ccc(c(Cl)c3)Oc3cc2cc(c3O[C@@H]2O[C@H](CO)[C@@H](O)[C@H](O)[C@H]2O[C@H]2C[C@](C)(N)[C@H](O)[C@H](C)O2)Oc2ccc(cc2Cl)[C@H]1O` [Vancomycin], the “percentage of Vancomycin free” value ([1]; methanol elute) is listed as 63±12%, the “percentage of Vancomycin bound” value ([1]; water/methanol (1:2) elute) is listed as 37±2% and the mean fraction bound ([2]; often quoted mean) is listed as 55%. The “protein bound (variation)” value ([2]; range of protein binding) was 10-82%.
